Settings in all cases: banded MIC grade
Test [1] concerns A. fumigatus 210. The test can be described thus: Minimum inhibitory concentration, YAG medium. The class given is cell-based, Aspergillus fumigatus. As for the experimental part:
(§1) Between 1 and 5 mgs of compound were accurately weighed out into a sterile Eppendorf tube. The compound was dissolved in DMSO to give a solution containing 5 mg/mL. Tubes were stored at −20° C. until required.
(§2) On the day of testing thawed solutions were vortex mixed to ensure homogeneity. 30 μL of solution was removed and added to 570 μL of sterile water in a separate sterile Eppendorf. The thoroughly mixed solution was used to prepare a series of doubling dilutions in water, in a deep well plate. Thirteen replicate plates were prepared using a Minitrak by aspirating 20 μL from each well into eleven clear polystyrene 96 well plates.
(§3) Spores of Aspergillus spp. (Aspergillus fumigatus [two strains], Aspergillus terreus [two strains], Aspergillus niger and Aspergillus flavus) were harvested from cultures grown on Sabarauds agar for 5 days, and resuspended in PBS/Tween 80 to approx 1×10^7 cfu/mL. Each organism suspension was diluted in YAG medium (1% glucose, 1% ammonium chloride and 0.5% yeast extract) to 0.5-2×10^4cfu/mL. 80 μL of an organism suspension was added to each well of the plate containing drug dilutions.
(§4) This typically produced MIC plates with a drug range 50-0.05 mg/L and organism inocula of 1-2×10^4 cfu/mL for Aspergillus spp. All plates were incubated for 24 hrs at 35° C. Growth was assessed by monitoring the optical density at 485 nm for each well. The MIC of a compound is the lowest drug concentration that inhibits growth of an organism by >70% compared with a drug free control. MICs are recorded as mg/L. In cases where the MIC of an organism is […] the MIC is repeated using a concentration range of 0.5-0.0005 mg/L.

The subject of test [2] is C. albicans. The test can be described thus: Minimum inhibitory concentration, RPMI medium. The class given is cell-based. The method, then:
(§5) The compound was dissolved in DMSO to give a solution containing 5 mg/mL. Tubes were stored at −20° C. until required. On the day of testing thawed solutions were vortex mixed to ensure homogeneity. 30 μL of solution was removed and added to 570 μL of sterile water in a separate sterile Eppendorf. The thoroughly mixed solution was used to prepare a series of doubling dilutions in water, in a deep well plate. Thirteen replicate plates were prepared using a Minitrak by aspirating 20 μL from each well into eleven clear polystyrene 96 well plates. Assays were also performed in RPMI medium (Roswell Park Memorial Media 1640). To perform MIC tests in this medium, dilutions of compounds are prepared in microtitre plates as described above. […] All plates were incubated for 24-48 hrs at 35° C. Growth was assessed by monitoring the optical density at 485 nm for each well. […] The following organisms were tested: […]

In test [3] the test system is C. parapsilosis. The test can be described thus: Minimum inhibitory concentration, RPMI medium. It counts as cell-based. The method, then: as §5
The subject of test [4] is C. tropicalis. The test can be described thus: Minimum inhibitory concentration, RPMI medium. It counts as cell-based. As for the experimental part: as §5
Test [5] concerns Aspergillus fumigatus. The test can be described thus: Minimum inhibitory concentration, YAG medium. The class given is cell-based. The method, then:
as §1, §2, §3, §4

The test system of test [6] is A. terreus 49. The test can be described thus: Minimum inhibitory concentration, YAG medium. It counts as cell-based, Aspergillus terreus. As for the experimental part:
(§6) The compound was dissolved in DMSO to give a solution containing 5 mg/mL. Tubes were stored at −20° C. until required. On the day of testing thawed solutions were vortex mixed to ensure homogeneity. 30 μL of solution was removed and added to 570 μL of sterile water in a separate sterile Eppendorf. The thoroughly mixed solution was used to prepare a series of doubling dilutions in water, in a deep well plate. Thirteen replicate plates were prepared using a Minitrak by aspirating 20 μL from each well into eleven clear polystyrene 96 well plates. Spores of Aspergillus spp. […] All plates were incubated for 24 hrs at 35° C. Growth was assessed by monitoring the optical density at 485 nm for each well. […] MICs are recorded as mg/L.

Test [7] deals with Aspergillus flavus. Briefly: Minimum inhibitory concentration, YAG medium. It counts as cell-based. The method, then:
as §6

The test system of test [8] is Aspergillus terreus. Briefly: Minimum inhibitory concentration, YAG medium. It counts as cell-based. The method, then: as §6
Test [9] concerns Aspergillus niger. Briefly: Minimum inhibitory concentration, YAG medium. It counts as cell-based. The method, then:
as §6

SMILES strings stand for the structures.

Take `NC1=NN=C(CCCCCN2C(=O)c3ccccc3C2=O)CS1`: the “MIC grade, A. FUMIGATUS 210, YAG media” value in test [1] is given as 4 (4: <0.2 mg/L). For the same molecule, the “MIC grade, C. ALBICANS, RPMI media” value in test [2] is listed as 1 (1: ≥20 mg/L). In addition, the “MIC grade, C. PARAPSILOSIS, RPMI media” value in test [3] was 3 (3: 1-5 mg/L). In [4], the “MIC grade, C. TROPICALIS, RPMI media” value was 1 (1: ≥20 mg/L). For the same molecule, in [5], the “MIC grade, A. FUMIGATUS, YAG media” value is 4 (4: <0.2 mg/L). Moreover, the “MIC grade, A. TERREUS 49, YAG media” value in test [6] was 4 (4: <0.2 mg/L). Also, the “MIC grade, A. FLAVUS, YAG media” value in test [7] is on record as 4 (4: <0.2 mg/L). The “MIC grade, A. TERREUS, YAG media” value in [8] was 4 (4: <0.2 mg/L). Further, in [9], the “MIC grade, A. NIGER, YAG media” value is listed as 4 (4: <0.2 mg/L).

`NC1=NN=C(CCCCc2cc3ccccc3o2)CS1`: in test [1], the “MIC grade, A. FUMIGATUS 210, YAG media” value is recorded as 3 (3: 0.2-1 mg/L). In [2], the “MIC grade, C. ALBICANS, RPMI media” value is 3 (3: 1-5 mg/L). In addition, the “MIC grade, C. PARAPSILOSIS, RPMI media” value in test [3] is 4 (4: <1 mg/L). Further, the “MIC grade, C. TROPICALIS, RPMI media” value in test [4] is 3 (3: 1-5 mg/L). The “MIC grade, A. FUMIGATUS, YAG media” value in test [5] is 3 (3: 0.2-1 mg/L). In test [6], the “MIC grade, A. TERREUS 49, YAG media” value was 3 (3: 0.2-1 mg/L). In test [7], the “MIC grade, A. FLAVUS, YAG media” value was 4 (4: <0.2 mg/L). In test [8], the “MIC grade, A. TERREUS, YAG media” value is 4 (4: <0.2 mg/L). Besides, the “MIC grade, A. NIGER, YAG media” value in test [9] is reported as 3 (3: 0.2-1 mg/L).

`NC1=NN=C(CCCCCOc2ccc(F)cc2)CS1`: the “MIC grade, A. FUMIGATUS 210, YAG media” value in test [1] is recorded as 4 (4: <0.2 mg/L). Besides, the “MIC grade, C. ALBICANS, RPMI media” value in [2] is reported as 4 (4: <1 mg/L). In addition, the “MIC grade, C. PARAPSILOSIS, RPMI media” value in [3] is 4 (4: <1 mg/L). The “MIC grade, C. TROPICALIS, RPMI media” value in test [4] is given as 4 (4: <1 mg/L). For the same molecule, the “MIC grade, A. FUMIGATUS, YAG media” value in test [5] is 4 (4: <0.2 mg/L). Also, the “MIC grade, A. TERREUS 49, YAG media” value in test [6] was 4 (4: <0.2 mg/L). Also, in test [7], the “MIC grade, A. FLAVUS, YAG media” value is 4 (4: <0.2 mg/L). Besides, in [8], the “MIC grade, A. TERREUS, YAG media” value is on record as 4 (4: <0.2 mg/L). In test [9], the “MIC grade, A. NIGER, YAG media” value is 4 (4: <0.2 mg/L).

As to `NC1=NN=C(CCCCCOCc2ccccc2)CS1`, in [1], the “MIC grade, A. FUMIGATUS 210, YAG media” value was 4 (4: <0.2 mg/L). For the same molecule, the “MIC grade, C. ALBICANS, RPMI media” value in test [2] is 3 (3: 1-5 mg/L). In test [3], the “MIC grade, C. PARAPSILOSIS, RPMI media” value is 4 (4: <1 mg/L). Further, in [4], the “MIC grade, C. TROPICALIS, RPMI media” value was 3 (3: 1-5 mg/L). Further, the “MIC grade, A. FUMIGATUS, YAG media” value in test [5] is given as 4 (4: <0.2 mg/L). The “MIC grade, A. TERREUS 49, YAG media” value in test [6] is recorded as 4 (4: <0.2 mg/L). For the same molecule, the “MIC grade, A. FLAVUS, YAG media” value in test [7] is on record as 4 (4: <0.2 mg/L). In test [8], the “MIC grade, A. TERREUS, YAG media” value was 3 (3: 0.2-1 mg/L). Also, in [9], the “MIC grade, A. NIGER, YAG media” value is given as 3 (3: 0.2-1 mg/L).

In the case of `COCCCCCC1=CSC(=N)NN1C`, the “MIC grade, A. FUMIGATUS 210, YAG media” value in test [1] was 4 (4: <0.2 mg/L). Further, the “MIC grade, C. ALBICANS, RPMI media” value in test [2] is 4 (4: <1 mg/L). The “MIC grade, C. PARAPSILOSIS, RPMI media” value in [3] is 4 (4: <1 mg/L). In test [4], the “MIC grade, C. TROPICALIS, RPMI media” value was 3 (3: 1-5 mg/L). In addition, in test [5], the “MIC grade, A. FUMIGATUS, YAG media” value is reported as 3 (3: 0.2-1 mg/L). The “MIC grade, A. TERREUS 49, YAG media” value in test [6] is listed as 4 (4: <0.2 mg/L). Besides, the “MIC grade, A. FLAVUS, YAG media” value in test [7] is 4 (4: <0.2 mg/L). The “MIC grade, A. TERREUS, YAG media” value in test [8] is 3 (3: 0.2-1 mg/L). Moreover, the “MIC grade, A. NIGER, YAG media” value in test [9] is 3 (3: 0.2-1 mg/L).

Take `CCCCC/C=C/C1=NN=C(N)SC1`: the “MIC grade, A. FUMIGATUS 210, YAG media” value in test [1] is listed as 2 (2: 1-5 mg/L). In test [2], the “MIC grade, C. ALBICANS, RPMI media” value is given as 2 (2: 5-20 mg/L). Besides, the “MIC grade, C. PARAPSILOSIS, RPMI media” value in test [3] is reported as 2 (2: 5-20 mg/L). Also, the “MIC grade, C. TROPICALIS, RPMI media” value in test [4] is on record as 1 (1: ≥20 mg/L). Further, the “MIC grade, A. FUMIGATUS, YAG media” value in test [5] is on record as 2 (2: 1-5 mg/L). In [6], the “MIC grade, A. TERREUS 49, YAG media” value is 2 (2: 1-5 mg/L). In addition, the “MIC grade, A. FLAVUS, YAG media” value in test [7] is recorded as 2 (2: 1-5 mg/L). Also, the “MIC grade, A. TERREUS, YAG media” value in [8] is 2 (2: 1-5 mg/L). Moreover, in test [9], the “MIC grade, A. NIGER, YAG media” value was 2 (2: 1-5 mg/L).

With `CC(C)OC(=O)CC1=NN=C(N)SC1`, the “MIC grade, C. ALBICANS, RPMI media” value in test [2] is reported as 1 (1: ≥20 mg/L). In test [3], the “MIC grade, C. PARAPSILOSIS, RPMI media” value was 2 (2: 5-20 mg/L). In test [4], the “MIC grade, C. TROPICALIS, RPMI media” value was 1 (1: ≥20 mg/L).
